Laboratory results: the supplement of paper PMC11208160

Assay: recombinant UMI read abundance after kanamycin selection (control-corrected) (log10(CPM+1)); higher = more efficient recombination; extreme values may be limits of the assay; sequences stand for … in AGTGCAGAGAAAATCGGCCAGTTTTCTCTGCCTGCAGTCCGCATGCCGTGGGACCCCTTGGGTTCTAACCTGTTGCCTAGATTTATGCAGCGGACTGCCTTTCTCCCAAAGTGATAAACCGG…AGGTTGGTTTCACT; site = the 11-nt donor
How it was run: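 For the IS621 bridge recombinase, a pooled Escherichia coli screen tested donor and donor-binding-loop pairs. Cells received the pair library together with a target plasmid encoding a fixed target and T7-inducible recombinase, then went onto IPTG (0.07 mM) plus kanamycin or unselected plates in duplicate. After PCR across the donor–target junction and sequencing, recombinant UMI counts were normalized to CPM, averaged, and scaled by control-derived factors. Each value is given as log10(CPM+1).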
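Also: IS621 bridge recombinase in Escherichia coli cells against a fixed T5 target plasmid.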

Sequence | recombinant UMI read abundance (log10)
AGCAATACATGGACCGGTTTTCCCGGTAATCCGTATTTGCA (site AGGAAGACTTG) | 0
AGCACGGCATGGACCGGTTTTCCCGGTAATCCGTATTTGCT (site AGCACGGCTAG) | 1.9
AGCACTACATGGACCGGTTTTCCCGGTAATCCGTATTTGAC (site AGAACTACTGT) | 1.25
AGCACTACATGGACCGGTTTTCCCGGTAATCCGTATTTGAC (site AGCACTACTGT) | 1.85
AGCACTACATGGACCGGTTTTCCCGGTAATCCGTATTTGAC (site AGGACTACTGT) | 0.927
AGCACTACATGGACCGGTTTTCCCGGTAATCCGTATTTGAC (site AGTACTACTGT) | 0.741
AGCATCCCATGGACCGGTTTTCCCGGTAATCCGTATTTGGC (site AGCATCCCTGC) | 1.74
AGCCAAGCATGGACCGGTTTTCCCGGTAATCCGTATTTGAG (site AACCAAGCTCT) | 0.0428
AGCCAAGCATGGACCGGTTTTCCCGGTAATCCGTATTTGAG (site ACCCAAGCTCT) | 0.641
AGCCAAGCATGGACCGGTTTTCCCGGTAATCCGTATTTGAG (site AGCCAAGCTCT) | 1.3
AGCCAAGCATGGACCGGTTTTCCCGGTAATCCGTATTTGAG (site ATCCAAGCTCT) | 0.655
AGCCGCTCATGGACCGGTTTTCCCGGTAATCCGTATTTGAT (site AGCCGCTCTAT) | 1.65
AGCCGTCCATGGACCGGTTTTCCCGGTAATCCGTATTTGAT (site AACCGTCCTAT) | 0.00909
AGCCGTCCATGGACCGGTTTTCCCGGTAATCCGTATTTGAT (site ACCCGTCCTAT) | 0
AGCCGTCCATGGACCGGTTTTCCCGGTAATCCGTATTTGAT (site AGCCGTCCTAT) | 1.09
AGCCGTCCATGGACCGGTTTTCCCGGTAATCCGTATTTGAT (site ATCCGTCCTAT) | 0.0112
AGCCTCTCATGGACCGGTTTTCCCGGTAATCCGTATTTGAC (site AGCCTATCTGT) | 0
AGCCTCTCATGGACCGGTTTTCCCGGTAATCCGTATTTGAC (site AGCCTCTCTGT) | 0
AGCCTCTCATGGACCGGTTTTCCCGGTAATCCGTATTTGAC (site AGCCTGTCTGT) | 0
AGCCTCTCATGGACCGGTTTTCCCGGTAATCCGTATTTGAC (site AGCCTTTCTGT) | 0
AGCCTTACATGGACCGGTTTTCCCGGTAATCCGTATTTGAC (site AGCCTTACTGT) | 2.52
AGCCTTACATGGACCGGTTTTCCCGGTAATCCGTATTTGAC (site AGCCTTCCTGT) | 0
AGCCTTACATGGACCGGTTTTCCCGGTAATCCGTATTTGAC (site AGCCTTGCTGT) | 0
AGCCTTACATGGACCGGTTTTCCCGGTAATCCGTATTTGAC (site AGCCTTTCTGT) | 0
AGCCTTGCATGGACCGGTTTTCCCGGTAATCCGTATTTGTA (site AGCCTTGCTTA) | 0.019

Sequence | recombinant UMI read abundance (log10)
AGCCTTTCATGGACCGGTTTTCCCGGTAATCCGTATTTGGC (site AGCCTTTCTGA) | 0
AGCCTTTCATGGACCGGTTTTCCCGGTAATCCGTATTTGGC (site AGCCTTTCTGC) | 0
AGCCTTTCATGGACCGGTTTTCCCGGTAATCCGTATTTGGC (site AGCCTTTCTGG) | 0
AGCCTTTCATGGACCGGTTTTCCCGGTAATCCGTATTTGGC (site AGCCTTTCTGT) | 0
AGCGAGCCATGGACCGGTTTTCCCGGTAATCCGTATTTGTA (site AGCGAGCCTTA) | 0.53
AGCGAGCCATGGACCGGTTTTCCCGGTAATCCGTATTTGTT (site AGCGAGCCTAA) | 0.501
AGCGGATCATGGACCGGTTTTCCCGGTAATCCGTATTTGAG (site AGCGGATCTCT) | 2.33
AGCGTGGCATGGACCGGTTTTCCCGGTAATCCGTATTTGGG (site AGCGTGGCTCC) | 0.277
AGCGTTTCATGGACCGGTTTTCCCGGTAATCCGTATTTGAC (site AGCATTTCTGT) | 0
AGCGTTTCATGGACCGGTTTTCCCGGTAATCCGTATTTGAC (site AGCCTTTCTGT) | 0
AGCGTTTCATGGACCGGTTTTCCCGGTAATCCGTATTTGAC (site AGCGTTTCTGT) | 2.63
AGCGTTTCATGGACCGGTTTTCCCGGTAATCCGTATTTGAC (site AGCTTTTCTGT) | 0.136
AGCTACGCATGGACCGGTTTTCCCGGTAATCCGTATTTGTC (site AGCTACGCTGA) | 2.27
AGCTAGACATGGACCGGTTTTCCCGGTAATCCGTATTTGGG (site AACTAGACTCC) | 0.0198
AGCTAGACATGGACCGGTTTTCCCGGTAATCCGTATTTGGG (site ACCTAGACTCC) | 0.239
AGCTAGACATGGACCGGTTTTCCCGGTAATCCGTATTTGGG (site AGCTAGACTCC) | 0.0244
AGCTAGACATGGACCGGTTTTCCCGGTAATCCGTATTTGGG (site ATCTAGACTCC) | 0.0227
AGCTATTCATGGACCGGTTTTCCCGGTAATCCGTATTTGGC (site AGCTATTCTGC) | 0.69
AGCTCAGCATGGACCGGTTTTCCCGGTAATCCGTATTTGCG (site AGCTCAGCTCA) | 0.0116
AGCTCAGCATGGACCGGTTTTCCCGGTAATCCGTATTTGCG (site AGCTCAGCTCC) | 0.00908
AGCTCAGCATGGACCGGTTTTCCCGGTAATCCGTATTTGCG (site AGCTCAGCTCG) | 0.537
AGCTCAGCATGGACCGGTTTTCCCGGTAATCCGTATTTGCG (site AGCTCAGCTCT) | 0.277
AGCTCCGCATGGACCGGTTTTCCCGGTAATCCGTATTTGCG (site AGCTCCGCTCG) | 0.271
AGCTGGTCATGGACCGGTTTTCCCGGTAATCCGTATTTGTA (site AGCTGGTCTTA) | 0.951
AGCTTAGCATGGACCGGTTTTCCCGGTAATCCGTATTTGGG (site AGCTAAGCTCC) | 0.0186

Sequence | recombinant UMI read abundance (log10)
AGCTTAGCATGGACCGGTTTTCCCGGTAATCCGTATTTGGG (site AGCTCAGCTCC) | 0.0187
AGCTTAGCATGGACCGGTTTTCCCGGTAATCCGTATTTGGG (site AGCTGAGCTCC) | 0.034
AGCTTAGCATGGACCGGTTTTCCCGGTAATCCGTATTTGGG (site AGCTTAGCTCC) | 0.0198
AGGAAACCATGGACCGGTTTTCCCGGTAATCCGTATTTGTT (site AGGAAACCTAA) | 0
AGGAAACCATGGACCGGTTTTCCCGGTAATCCGTATTTGTT (site CGGAATCCTAA) | 0
AGGAACACATGGACCGGTTTTCCCGGTAATCCGTATTTGAA (site AGGAACACTTT) | 2.29
AGGAACACATGGACCGGTTTTCCCGGTAATCCGTATTTGAA (site AGGAAGACTTG) | 0
AGGAACCCATGGACCGGTTTTCCCGGTAATCCGTATTTGCA (site AGGAACCCTTG) | 0.786
AGGAACCCATGGACCGGTTTTCCCGGTAATCCGTATTTGCA (site AGGAAGACTTG) | 0
AGGAAGACATGGACCGGTTTTCCCGGTAATCCGTATTTGAA (site AGGAAGACTTA) | 0.985
AGGAAGACATGGACCGGTTTTCCCGGTAATCCGTATTTGAA (site AGGAAGACTTC) | 0.592
AGGAAGACATGGACCGGTTTTCCCGGTAATCCGTATTTGAA (site AGGAAGACTTG) | 0.298
AGGAAGACATGGACCGGTTTTCCCGGTAATCCGTATTTGAA (site AGGAAGACTTT) | 2.37
AGGAAGACATGGACCGGTTTTCCCGGTAATCCGTATTTGCA (site AAGAACACTTG) | 0
AGGAAGACATGGACCGGTTTTCCCGGTAATCCGTATTTGCA (site AAGAAGACTGG) | 0
AGGAAGACATGGACCGGTTTTCCCGGTAATCCGTATTTGCA (site AAGAAGACTTG) | 1.06
AGGAAGACATGGACCGGTTTTCCCGGTAATCCGTATTTGCA (site AAGAAGACTTT) | 0.0128
AGGAAGACATGGACCGGTTTTCCCGGTAATCCGTATTTGCA (site AAGAAGCCTTG) | 0
AGGAAGACATGGACCGGTTTTCCCGGTAATCCGTATTTGCA (site AAGAGGACTTG) | 0.101
AGGAAGACATGGACCGGTTTTCCCGGTAATCCGTATTTGCA (site AAGTAGACTTG) | 1.23
AGGAAGACATGGACCGGTTTTCCCGGTAATCCGTATTTGCA (site AATAAGACTTG) | 1.43
AGGAAGACATGGACCGGTTTTCCCGGTAATCCGTATTTGCA (site ACAAAGACTTG) | 1.25
AGGAAGACATGGACCGGTTTTCCCGGTAATCCGTATTTGCA (site ACGAAAACTTG) | 0
AGGAAGACATGGACCGGTTTTCCCGGTAATCCGTATTTGCA (site ACGAAGACTCG) | 0.0101
AGGAAGACATGGACCGGTTTTCCCGGTAATCCGTATTTGCA (site ACGAAGACTTA) | 0.00527
